Experimental data taken from patent US20230380419A1, “NANOCOMPOSITE COMPOSITIONS COMPRISING MULTI-VALENT METAL MATERIAL AND IMMOBILIZED QUAT MATERIAL, METHODS OF MAKING THE COMPOSITIONS AND METHODS OF USING THE COMPOSITIONS” (UNIVERSITY OF CENTRAL FLORIDA RESEARCH FOUNDATION, INC., priority 2015, published 2023).

What was measured:
E. coli = test: Minimum Inhibitory Concentration (MIC) assay, broth microdilution and alamar blue; type: cell-based; conditions: single-active controls; 24 hours incubation
X. alfalfae = test: as above; type: cell-based; conditions: single-active controls; 24 hours incubation
Protocol: Although not depicted in the figures, the antimicrobial properties of LSP materials and components were studied using standard microbiological technique to determine the Minimum Inhibitory Concentration (MIC). Samples were tested against Gram-negative Xanthomonas alfalfae subsp. citrumelonis strain F1 (ATCC 49120, a citrus canker surrogate), Gram-negative Pseudomonas syringae pv. syringae (ATCC 19310, causative agent of bacterial speck in Lilac, almond, apricots, peaches and wild beans among others) and Gram positive Clavibacter michiganensis subsp. michiganensis (ATCC 10202, causative agent of bacterial wilt and canker in Tomato sp). X. alfalfae and P. syringae were maintained with nutrient agar and broth while C. michiganensis was grown with brain heart infusion (BHI) media. All bacteria were grown at 26° C. in a shaking incubator (150 rpm).
Minimum Inhibitory Concentration (MIC) Assay
MIC was determined using two different methods: • a. Broth microdilution: Protocols as delineated by the Clinical and Laboratory Standards Institute (CLSI) were followed for conducting MIC studies to be in compliance with American Society of Microbiology guidelines. […] Since broth microdilution is based only on light absorbance, low concentration of bacteria can fall below the detection limit of the traditional optical density measurement. […]

Row | SMILES | MIC E. coli (E. coli) | MIC X. alfalfae (X. alfalfae)
1 | O=S(=O)([O-])[O-].[Cu+2] [CuSO4] | 250-500 μg active/mL | 125-250 μg active/mL
2 | CCCCCCCCCC[N+](C)(C)CCCCCCCCCC.[Cl-] [Quat, Didecyl Dimethyl Ammonium Chloride] | 2-4 μg active/mL | 2-4 μg active/mL
